Experimental data taken from patent publication US20030212100A1, “Quinoline derivatives and medicinal use thereof” (priority 2000, published 2003).

How the values were obtained:
human PPARγ receptor = molecular target: T1, human PPARγ receptor (Homo sapiens, UniProt P37231); assay: Luciferase reporter assay of PPARγ agonist activity (Gal4-PPARγ chimera receptor in CV-1 cells); format: cell-based; conditions: for Emax at 0.1 µM: CV-1, 0.1 μM compound; for Emax at 0.1 µM / Emax at 1 µM / Emax at 10 µM: luciferase activity with 1 μM Pioglitazone taken as 100, read-out: PPAR γ agonist activity, relative activity; for Emax at 1 µM: CV-1, 1 μM compound; for Emax at 10 µM: CV-1, 10 μM compound; for PPAR γ agonist activity, relative activity: luciferase activity with 1 μM Pioglitazone taken as 100
T1 construct: corresponding to Ser204-Tyr506 for human PPARγ1 receptor and human PPARγ2; expressed in transfected cells; host or cells: CV-1 cells (pSG5-based expression vector)
T1 sequence (P37231 204-505 limits assumed): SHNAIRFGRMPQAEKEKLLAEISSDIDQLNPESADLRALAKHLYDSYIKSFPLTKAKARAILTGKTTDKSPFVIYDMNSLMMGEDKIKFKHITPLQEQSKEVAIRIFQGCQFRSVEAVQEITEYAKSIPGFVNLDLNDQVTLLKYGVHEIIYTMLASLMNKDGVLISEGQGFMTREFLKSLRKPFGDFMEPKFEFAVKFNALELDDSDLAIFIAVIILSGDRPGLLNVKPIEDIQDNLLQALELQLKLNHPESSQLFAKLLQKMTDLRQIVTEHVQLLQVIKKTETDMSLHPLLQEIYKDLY
Description: (§1) Measurement of PPARα Agonist Activity and PPARγ Agonist Activity
(§2) 1. Materials for Assay of Luciferase Using Human PPARα and PPARγ Receptors
(§3) The entire procedure was carried out according to the fundamental methods of genetic engineering and the ordinary method in the yeast one-hybrid or two-hybrid system was applied.
(§4) PGL2-UAS5-TK-luc was prepared as a reporter plasmid carrying a response sequence of Gal4 protein as a basic transcription factor of yeast, an enhancer sequence with five repeat part of UAS, a luciferase gene (luc) under the control of timidine kinase (TK) promoter. Specifically, a DNA fragment encoding a TK promoter (−105/+51) on the downstream side of an enhancer sequence comprising two time repeat of UAS was amplified by PCR using pRL-TK carrying a TK promoter (Promega, Trade name: Catalogue No. E2241) as the template and the primers: […]
(§5) After the fragment was cleaved with XhoI-Hind III, pGL2-UAS2-TK-luc was obtained by inserting the resultant fragment into the XhoI-Hind III site located on the upstream side of a luciferase structural gene on pGL2-Basic vector (Promega, Trade name: Catalogue No. E1641).
(§6) After cleavage of a synthetic DNA as an enhancer sequence comprising three time repeat of Gal4 response sequence (SEQ ID NO: 3): 5′-ATTGGTAC([…])×3 AGATCTCGAC) using KpnI and BgIII was carried out, pGL2-UAS5-TK-luc was prepared by inserting the resulting fragment into the KpnI-BgIIIb site of pGL2-UAS2-TK-luc.
(§7) A vector for expression of a chimera receptor protein, in which a ligand binding region of an internuclear receptor human PPARα or PPARγ receptor was fused with the carboxyl terminal of a DNA binding region of yeast Ga14 protein, was prepared as follows:
(§8) The structural gene of pSG5 (STRATAGENE, Trade Name: Catalogue No. 216201) as the basic expression vector was changed for the chimera receptor except that the promoter-enhancer region was maintained as it was.
(§9) The DNA encoding the ligand binding region of the human PPARα or PPARγ receptor was fused on the downstream side of the DNA encoding the DNA binding region and the amino acid sequence from 1 to 147 positions of Ga14 protein so that their reading frames were fitted and the resulting fused DNA was inserted into pSG5 (trade name) on the down stream side of the promoter-enhancer region. In this step, the DNA sequence was arranged so that a signal for transfer into the nucleus (Ala Pro Lys Lys Lys Arg Lys Val Gly (SEQ ID: No: 4) derived from SV-40T antigen was located on the amino terminal of the ligand binding region of PPARα or PPARγ receptor in order to localize the chimera receptor in the nucleus.
(§10) Based on comparison of the human PPAR receptors described in R. Mukherjee et al., [see J. Steroid Biochem. Molec. Biol., Vol. 51, p157 (1994)] and M. E. Green et al., [see Gene Expression, Vol. 4, p281 (1995))], as the structural gene part used for the ligand binding region PPARα or PPARγ, the human PPARα ligand binding region: Ser167-Tyr468; and the PPARγ ligand binding region: Ser176-Tyr478 were used, which had the same sequences corresponding to Ser204-Tyr506 for human PPARγ1 receptor and human PPARγ2, respectively.
(§11) In order to monitor influence against the basic transcription, an expression vector was prepared which carried a DNA encoding only the DNA binding region and the amino acid sequence from 1 to 147 position of Ga14 protein defective in its PPAR ligand binding region and a signal for transfer into the nucleus of SV-40T-antigen.
(§12) 2. Assay of Luciferase Using Human PPARα or PPARγ Receptor
(§13) CV-1 cells used as a host cell were cultivated according to an ordinary method. Specifically, a fetal bovine serum (Intergent, Catalogue No. 1020-90) was added to a Dulbecco's modified Eagle's medium (DMEM) so that the final concentration became 10%. Further, penicillin G (50 U/ml) and streptomycin sulfate (50 μg/ml) were added. Cultivation was conducted in the resulting medium in a 5% carbon dioxide gas at 37° C. […]

human PPARα receptor = molecular target: T2, human PPARα receptor (Homo sapiens, UniProt Q07869); assay: Luciferase reporter assay of PPARα agonist activity (Gal4-PPARα chimera receptor in CV-1 cells); format: cell-based; conditions: for Emax at 0.1 µM: CV-1, 0.1 μM compound; for Emax at 0.1 µM / Emax at 1 µM / Emax at 10 µM: luciferase activity with 10 μM Wy-14,643 taken as 100, read-out: PPARα agonist activity, relative activity; for Emax at 1 µM: CV-1, 1 μM compound; for Emax at 10 µM: CV-1, 10 μM compound; for PPARα agonist activity, relative activity: luciferase activity with 10 μM Wy-14,643 taken as 100
T2 construct: expressed in transfected cells; host or cells: CV-1 cells (pSG5-based expression vector)
T2 sequence (Q07869 167-468): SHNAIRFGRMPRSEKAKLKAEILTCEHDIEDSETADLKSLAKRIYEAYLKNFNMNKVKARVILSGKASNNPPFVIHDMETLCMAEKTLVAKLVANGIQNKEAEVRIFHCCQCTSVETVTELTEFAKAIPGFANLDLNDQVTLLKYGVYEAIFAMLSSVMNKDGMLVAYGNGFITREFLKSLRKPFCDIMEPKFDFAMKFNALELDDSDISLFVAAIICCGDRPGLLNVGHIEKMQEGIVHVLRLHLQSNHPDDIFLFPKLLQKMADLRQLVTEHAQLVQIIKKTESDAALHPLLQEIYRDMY
Description: as §1, §2, §3, §4, §5, §6, §7, §8, §9, §10, §11, §12, §13

[1] = test system: KK-Ay/Ta Jci type 2 diabetes mice; assay: In-vivo blood sugar and lipid reduction in diabetes model mice (KKAy mice); design: species or system mouse; conditions: 30 mg/kg orally one time per day for 4 days, 5th day vs 1st day; for Reduction in free fatty acid (%) / Reduction in triglyceride (%): plasma
Description: Test for in-vivo Evaluation of the Activities for Blood Sugar Reduction and Lipid Reduction Using Diabetes Model Mice (KKAy Mice)
Type 2 diabetes mice “KK-Ay/Ta Jci” (male, Clea Japan, Inc., 10-week old) put in cages were used (each cage contained 5 mice). In the morning of the 1st day of test start, a blood was collected from the orbital vein of each mouse. The blood sugar value in the blood was measured by subjecting the blood to deproteinization using perchloric acid, subjecting the resulting material to centrifugation, and subjecting the resulting supernatant liquid to a new blood sugar test (Boehringer Mannheim). Further, the blood was subjected to centrifugation to obtain a plasma and the triglyceride concentration and free fatty acid concentration in the plasma were measured using Triglyceride E-Test Wako and NEFA-C Test Wako (Wako Pure Chemical Industries, Ltd.), respectively. Grouping was made so that the blood sugar values in individual groups became the same. Then, an Example 2 compound (exemplary compound No. 61) was suspended in a 0.5% aqueous CMC solution and administered orally one time per day for 4 days. In the 5th day of test, blood collection was made to measure blood sugar value, triglyceride concentration and free fatty acid concentration. Incidentally, a group to which only the 0.5% aqueous CMC solution was administered, was used as a control group; and Pioglitazone was used in a positive control group. The reduction in parameter in each group was calculated using the following formula.
Reduction (%)={1−(parameter of 5th day in each group)/(parameter of 1st day in each group)}×100

Row | SMILES | Emax at 0.1 µM (human PPARγ receptor) | Emax at 1 µM (human PPARγ receptor) | Emax at 10 µM (human PPARγ receptor) | Emax at 0.1 µM (human PPARα receptor) | Emax at 1 µM (human PPARα receptor) | Emax at 10 µM (human PPARα receptor) | PPAR γ agonist activity, relative activity (human PPARγ receptor; 0.1 μM compound) | PPAR γ agonist activity, relative activity (human PPARγ receptor; 1 μM compound) | PPAR γ agonist activity, relative activity (human PPARγ receptor; 10 μM compound) | PPARα agonist activity, relative activity (human PPARα receptor; 0.1 μM compound) | PPARα agonist activity, relative activity (human PPARα receptor; 1 μM compound) | PPARα agonist activity, relative activity (human PPARα receptor; 10 μM compound) | Reduction in blood sugar (%) [1] | Reduction in free fatty acid (%) [1] | Reduction in triglyceride (%) [1]
1 | CCOC(Cc1ccc(OCc2cnc3cc(C)cc(C)c3c2OC(C)C)cc1)C(=O)O (stereo not shown) [Example 5 (71), 2-ethoxy-3-{[4-(4-isopropoxy-5,7-dimethylquinoline-3-yl)methyloxy]phenyl}propanoic acid] | 0.3% | 0.4% | 11.6% | 0.3% | 0.5% | 28.4% | – | – | – | – | – | – | – | – | –
2 | CCOC(Cc1ccc(OCc2cc(OC)c3ccccc3n2)cc1)C(=O)O (stereo not shown) [Example 11 (99), 2-ethoxy-3-{[4-(4-methoxyquinoline-2-yl)methyloxy]phenyl}propanoic acid] | 75.2% | 115% | 106% | 25.2% | 64.3% | 68.6% | – | – | – | – | – | – | – | – | –
3 | COc1ccc2ncc(COc3ccc(/C=C(\Sc4ccccc4)C(=O)O)cc3)c(OC(C)C)c2c1 [Example 18 (112), 3-{[4-(4-isopropoxy-6-methoxyquinoline-3-yl)methyloxy]phenyl}-2-phenylthiopropenoic acid] | 0.5% | 22.2% | 89.9% | 0.3% | 0.3% | 0.3% | – | – | – | – | – | – | – | – | –
4 | CCOC(Cc1ccc(OCc2cnc3cc(OC)c(OC)cc3c2OC(C)C)cc1)C(=O)O (stereo not shown) [Example 8 (65), 2-ethoxy-3-{[4-(4-isopropoxy-6,7-dimethoxyquinoline-3-yl)methyloxy]phenyl}propanoic acid] | 1.3% | 13% | 107% | 0.3% | 0.3% | 1.5% | – | – | – | – | – | – | – | – | –
5 | CCOC(Cc1ccc(OCc2ccc3ncccc3c2)cc1)C(=O)O (stereo not shown) [Example 10 (32), 2-ethoxy-3-{[4-(quinoline-6-yl)methyloxy]phenyl}propanoic acid] | – | – | – | – | – | – | 1.0 | 20.8 | 123.9 | 0.2 | 0.3 | 50.1 | – | – | –
6 | CCOC(Cc1ccc(OCc2cnc3c(F)cccc3c2OC(C)C)cc1)C(=O)O (stereo not shown) [Example 15 (82), 2-ethoxy-3-{[4-(8-fluoro-4-isopropoxyquinoline-3-yl)methyloxy]phenyl}propanoic acid] | 52.3% | 133% | 125% | 0.3% | 0.3% | 5% | – | – | – | – | – | – | – | – | –
7 | CCc1ccc(CCOc2ccc(CC3SC(=O)NC3=O)cc2)nc1 (stereo not shown) [Pioglitazone, reference compound] | – | – | – | – | – | – | – | – | – | – | – | – | 28% | 49% | 60%
8 | CCOC(Cc1ccc(OCc2cnc3ccc(OC)cc3c2OC(C)C)cc1)C(=O)O (stereo not shown) [Example 2 (61), 2-ethoxy-3-{[4-(4-isopropoxy-6-methoxyquinoline-3-yl)methyloxy]phenyl}propanoic acid] | 85% | 114% | – | – | 10.4% | 24.6% | – | – | – | – | – | – | 50% | 46% | 57%
